Results reported in US11332459B2 (TEIJIN PHARMA LIMITED, priority 2017, dated 2022).
Structures can show the parent of a compound that is named as a salt.

Biological target: T1, human TRPC6 (Homo sapiens, UniProt Q9Y210)
T1 construct: expressed in transfected cells
T1 sequence (Q9Y210 1-931): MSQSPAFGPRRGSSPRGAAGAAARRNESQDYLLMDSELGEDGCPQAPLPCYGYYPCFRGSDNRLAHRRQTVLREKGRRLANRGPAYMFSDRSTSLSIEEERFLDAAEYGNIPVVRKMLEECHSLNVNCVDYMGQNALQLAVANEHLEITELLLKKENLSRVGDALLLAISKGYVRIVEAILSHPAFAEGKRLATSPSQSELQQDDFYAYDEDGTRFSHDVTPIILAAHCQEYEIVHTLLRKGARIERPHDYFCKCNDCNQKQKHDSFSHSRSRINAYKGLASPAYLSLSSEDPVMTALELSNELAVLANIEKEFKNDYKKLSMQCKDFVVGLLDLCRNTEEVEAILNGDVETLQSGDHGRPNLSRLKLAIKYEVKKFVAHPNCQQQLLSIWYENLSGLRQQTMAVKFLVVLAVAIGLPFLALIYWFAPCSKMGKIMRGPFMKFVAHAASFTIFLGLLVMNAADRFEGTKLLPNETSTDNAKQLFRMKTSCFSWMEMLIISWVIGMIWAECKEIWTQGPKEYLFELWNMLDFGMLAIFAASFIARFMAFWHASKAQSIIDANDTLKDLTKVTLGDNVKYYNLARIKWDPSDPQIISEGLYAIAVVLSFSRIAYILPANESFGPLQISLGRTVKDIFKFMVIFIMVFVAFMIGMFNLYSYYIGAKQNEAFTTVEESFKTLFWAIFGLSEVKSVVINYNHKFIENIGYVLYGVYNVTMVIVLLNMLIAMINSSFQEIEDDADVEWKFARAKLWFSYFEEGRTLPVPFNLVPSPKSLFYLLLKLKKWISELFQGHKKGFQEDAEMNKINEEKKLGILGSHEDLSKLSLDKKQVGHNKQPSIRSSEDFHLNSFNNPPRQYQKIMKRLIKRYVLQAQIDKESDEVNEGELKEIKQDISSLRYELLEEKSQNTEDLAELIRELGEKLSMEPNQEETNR
Assay: TRPC6 calcium flux assay (FLIPR, OAG-stimulated calcium influx)
Type: cell-based
Settings: HEK293 cells stably transfected with human TRPC6, read-out: hTRPC6 Potency
Outline: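 HEK293 cells stably expressing human TRPC6, loaded with calcium dye 90–120 min at RT, then given compound for 25 min before OAG (50 uM final, 0.5% DMSO) in HEPES buffer pH 7.2 with 2 mM CaCl2. Background-subtracted FLIPR peak over 180 s normalized to OAG vs buffer; IC50 from dose plot.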

Row | IC50 [nM] | SMILES
1 | 174 | N[C@@H]1CN(c2nc3cc(F)c(F)cc3n2CC(=O)N2CCCc3cccnc32)CC[C@H]1F [Example 630, 2-(2-((3R,4R)-3-amino-4-fluoropiperidin-1-yl)-5,6-difluoro-1H-benzo[d]imidazol-1-yl)-1-(3,4-dihydro-1,8-naphthyridin-1(2H)-yl)ethanone]
2 | 555 | CN(C(=O)Cn1c(N2CC[C@@H](F)[C@H](N)C2)nc2ccc(F)cc21)[C@H]1CCOC1 [Example 664, 2-(2-((3R,4R)-3-amino-4-fluoropiperidin-1-yl)-6-fluoro-1H-benzo[d]imidazol-1-yl)-N-methyl-N-((S)-tetrahydrofuran-3-yl)acetamide]
3 | 6.69 | Cc1nnc(Cn2c(N3CC[C@@H](F)[C@H](N)C3)nc3cc(F)c(F)cc32)s1 [Example 553, (3R,4R)-1-(5,6-difluoro-1-((5-methyl-1,3,4-thiadiazol-2-yl)methyl)-1H-benzo[d]imidazol-2-yl)-4-fluoropiperidin-3-amine]
4 | 0.52 | COc1ccc2nc(N3CCC(F)(F)[C@H](N)C3)n(Cc3ccc(C#N)cn3)c2c1 [Example 138, 6-((2-((3R)-3-amino-4,4-difluoro-1-piperidinyl)-6-methoxy-1H-benzimidazol-1-yl)methyl)-3-pyridinecarbonitrile]
5 | 151 | N#Cc1ccc2c(c1)CC[C@H]2n1c(N2CCC[C@H](N)C2)nc2ccccc21 [Example 423, (R)-1-(2-((S)-3-aminopiperidin-1-yl)-1H-benzo[d]imidazol-1-yl)-2,3-dihydro-1H-indene-5-carbonitrile]
6 | 1.04 | N#Cc1ccc(Cn2c(N3CC[C@H](F)[C@H](N)C3)nc3c(Cl)cccc32)cc1 [Example 409]
7 | 6.47 | N#Cc1ccc(Cn2c(N3CCC[C@H](N)C3)nc3ccc(C#N)cc32)nc1 [Example 51, (S)-2-(3-aminopiperidin-1-yl)-1-((5-cyanopyridin-2-yl)methyl)-1H-benzo[d]imidazole-6-carbonitrile]
8 | 1.88 | C[C@H](c1ncc(Cl)cn1)n1c(N2CC[C@@H](F)[C@H](N)C2)nc2cc(F)c(F)cc21 [Example 498, (3R,4R)-1-(1-((R)-1-(5-chloropyrimidin-2-yl)ethyl)-5,6-difluoro-1H-benzo[d]imidazol-2-yl)-4-fluoropiperidin-3-amine]
9 | 36.7 | CN[C@@H]1CN(c2nc3c(F)cc(F)cc3n2[C@@H](C)c2ccc(C#N)cn2)CC[C@H]1F (single isomer, unassigned) [Example 439]
10 | > 3750 | C[C@H](c1ccccc1Cl)n1c(N2CC[C@@H](F)[C@H](N)C2)nc2cc(F)c(F)cc21 [Example 324, (3R,4R)-1-(1-((1R)-1-(2-chlorophenyl)ethyl)-5,6-difluoro-1H-benzimidazol-2-yl)-4-fluoro-3-piperidinamine]
11 | 2860 | N#Cc1ccc(Cn2c(N3CC[C@H](O)[C@H](N)C3)nc3cc(F)ccc32)nc1 [Example 312, 6-((2-((3R,4S)-3-amino-4-hydroxypiperidin-1-yl)-5-fluoro-1H-benzo[d]imidazol-1-yl)methyl)nicotinonitrile]
12 | > 3750 | C[C@H](c1cccc2cccnc12)n1c(N2CC[C@@H](F)[C@H](N)C2)nc2cc(F)c(F)cc21 [Example 261, (3R,4R)-1-(5,6-difluoro-1-((1R)-1-(8-quinolinyl)ethyl)-1H-benzimidazol-2-yl)-4-fluoro-3-piperidinamine]
13 | 2.81 | C[C@@H](c1ccc(C#N)cn1)n1c(N2CC[C@@H](F)[C@H](N)C2)nc2ccc(C#N)cc21 [Example 225, 2-((3R,4R)-3-amino-4-fluoropiperidin-1-yl)-1-((S)-1-(5-cyanopyridin-2-yl)ethyl)-1H-benzo[d]imidazole-6-carbonitrile hydrochloride]
14 | 0.787 | Cc1ccc2nc(N3CC[C@@H](F)[C@H](N)C3)n(Cc3ccc(C#N)cn3)c2c1 [Example 111, 6-((2-((3R,4R)-3-amino-4-fluoro-1-piperidinyl)-6-methyl-1H-benzimidazol-1-yl)methyl)-3-pyridinecarbonitrile]
15 | 117 | N[C@@H]1CN(c2nc3ccc(F)cc3n2Cc2nnc(C(F)F)s2)CC[C@H]1F [Example 573, (3R,4R)-1-(1-((5-(difluoromethyl)-1,3,4-thiadiazol-2-yl)methyl)-6-fluoro-1H-benzo[d]imidazol-2-yl)-4-fluoropiperidin-3-amine]
16 | 16.6 | CN(CC(F)(F)F)C(=O)Cn1c(N2CC[C@@H](F)[C@H](N)C2)nc2ccc(Cl)cc21 [Example 559, 2-(2-((3R,4R)-3-amino-4-fluoropiperidin-1-yl)-6-chloro-1H-benzo[d]imidazol-1-yl)-N-methyl-N-(2,2,2-trifluoroethyl)acetamide]
17 | 328 | N[C@@H]1CN(c2nc3cc(F)c(F)cc3n2Cc2ccccc2C(F)(F)F)CC[C@H]1F [Example 352, (3R,4R)-1-(5,6-difluoro-1-(2-(trifluoromethyl)benzyl)-1H-benzimidazol-2-yl)-4-fluoro-3-piperidinamine]
18 | 259 | C[C@H]1CCCN1C(=O)Cn1c(N2CC[C@@H](F)[C@H](N)C2)nc2ccc(F)cc21 [Example 682, 2-(2-((3R,4R)-3-amino-4-fluoropiperidin-1-yl)-6-fluoro-1H-benzo[d]imidazol-1-yl)-1-((S)-2-methylpyrrolidin-1-yl)ethan-1-one]
19 | 2860 | N[C@@H]1CN(c2nc3cc(F)c(F)cc3n2Cc2c(Cl)cccc2Cl)CC[C@H]1F [Example 265, (3R,4R)-1-(1-(2,6-dichlorobenzyl)-5,6-difluoro-1H-benzimidazol-2-yl)-4-fluoro-3-piperidinamine]
20 | 5.75 | CN(C(=O)Cn1c(N2CC[C@@H](F)[C@H](N)C2)nc2cc(F)c(F)cc21)C1CC1 [Example 602, 2-(2-((3R,4R)-3-amino-4-fluoropiperidin-1-yl)-5,6-difluoro-1H-benzo[d]imidazol-1-yl)-N-cyclopropyl-N-methylacetamide]
21 | 1.09 | N#Cc1cc(F)cc2c1nc(N1CC[C@H](F)[C@H](N)C1)n2Cc1ncc(Cl)cn1 [Example 149, 2-((3R,4S)-3-amino-4-fluoropiperidin-1-yl)-1-((5-chloropyrimidin-2-yl)methyl)-6-fluoro-1H-benzo[d]imidazole-4-carbonitrile]
22 | 153 | COC[C@@H]1COCCN1C(=O)Cn1c(N2CC[C@@H](F)[C@H](N)C2)nc2ccc(F)cc21 [Example 680, 2-(2-((3R,4R)-3-amino-4-fluoropiperidin-1-yl)-6-fluoro-1H-benzo[d]imidazol-1-yl)-1-((R)-3-(methoxymethyl)morpholino) ethan-1-one]
23 | 20.5 | CC(c1ccc(C#N)cc1)n1c(N2CCC[C@H](N)C2)nc2ccccc21 (mixture of isomers) [Example 399, 4-(1-(2-((S)-3-aminopiperidin-1-yl)-1H-benzo[d]imidazol-1-yl)ethyl)benzonitrile]
24 | 139 | N[C@@H]1CN(c2nc3cc(F)c(F)cc3n2CC(=O)N2CCCCCCC2)CC[C@H]1F [Example 510, 2-(2-((3R,4R)-3-amino-4-fluoropiperidin-1-yl)-5,6-difluoro-1H-benzo[d]imidazol-1-yl)-1-(azocan-1-yl)ethan-1-one]
25 | 0.4 | N#Cc1ccc(Cn2c(N3CC[C@@H](F)[C@H](N)C3)nc3ccc(Cl)cc32)nc1 [Example 6, 6-((2-((3R,4R)-3-amino-4-fluoropiperidin-1-yl)-6-chloro-1H-benzo[d]imidazol-1-yl)methyl)nicotinonitrile]
26 | 86.7 | CN(CC(F)(F)F)C(=O)Cn1c(N2CCC(F)(F)[C@H](N)C2)nc2ccc(F)cc21 [Example 465, (R)-2-(2-(3-amino-4,4-difluoropiperidin-1-yl)-6-fluoro-1H-benzo[d]imidazol-1-yl)-N-methyl-N-(2,2,2-trifluoroethyl)acetamide]
27 | > 3750 | N[C@@H]1CN(c2nc3cc(F)c(F)cc3n2CC(=O)O)CC[C@H]1F [Example 437, 2-(2-((3R,4R)-3-amino-4-fluoropiperidin-1-yl)-5,6-difluoro-1H-benzo[d]imidazol-1-yl)acetic acid]
28 | 0.432 | N[C@@H]1CN(c2nc3c(F)cc(F)cc3n2Cc2ccc(F)cn2)CC[C@H]1F [Example 33, (3R,4R)-1-(4,6-difluoro-1-((5-fluoropyridin-2-yl)methyl)-1H-benzo[d]imidazol-2-yl)-4-fluoropiperidin-3-amine]
29 | 16.4 | N[C@@H]1CN(c2nc3ccc(C(F)(F)F)cc3n2CC(=O)N2CCOCC2)CC[C@H]1F [Example 459, 2-(2-((3R,4R)-3-amino-4-fluoropiperidin-1-yl)-6-(trifluoromethyl)-1H-benzo[d]imidazol-1-yl)-1-morpholinoethan-1-one]
